How the values were obtained:
[1] = Dynamic vapor sorption analysis of hygroscopicity; format: physicochemical; conditions: RH from 5% to 95%, comparison of forms A, C, D, E
Description: Dynamic vapor sorption analysis was used for measurement of the hygroscopicity of crystalline form A, C, D, and E under the scope of relative humidity (RH) from 5% to 95%.

[2] = Solubility in methanol/dichloromethane mixture; format: physicochemical; conditions: methanol/dichloromethane mixture (1:3 v/v), organic solvent or mixture; mixture organic solvent of methanol and dichloromethane (volume ratio 1:3)
Procedure: In 200 μl of a mixture organic solvent of methanol and dichloromethane (volume ratio 1:3) was added 10 mg of the crystalline form E of benfotiamine (solubility 50 mg/ml). Then, 1 ml of the poor solvent of ethanol was slowly added to the mixture along device wall. Precipitated crystals were collected by filtration, followed by evaporated in the air.

hygroscopicity rank among the four crystalline forms [1] | solubility [2] [mg/mL] | SMILES
highest | – | C/C(=C(\CCO[P+]([O-])(O)O)SC(=O)c1ccccc1)N(C=O)Cc1cnc(C)nc1N [crystalline form D, S-benzoylthiamine O-monophosphate]
lowest | 50 | C/C(=C(\CCO[P+]([O-])(O)O)SC(=O)c1ccccc1)N(C=O)Cc1cnc(C)nc1N [crystalline form E, S-benzoylthiamine O-monophosphate]

From patent publication US9718846B1, “Crystalline polymorphs of benfotiamine, process for preparation and its use thereof” (Shanghai Ri Xin Biotechnolgy Co., Ltd., priority 2012, dated 2017)
